The source of these data is patent US5378838A, “Benzodiazepine cholecystokinin antagonists” (Merck & Co., Inc., priority 1993, dated 1995).

Read-outs that look alike come from different tables or passages of the source. Non-standard residues stand in square brackets, D forms with d. Residues, ends and D or L forms follow the SMILES beside them. *: point of attachment. sY = N[C@@H](Cc1ccc(OS(=O)(=O)O)cc1)C(=O)O; Cbz = O=C(OCc1ccccc1)*

One assay concerns CCK-B receptors. The following applies: literature; cited from earlier work.
A further assay concerns CCK. Particulars: literature; cited from earlier work.
In another assay the target is T1, CCK receptor (pancreas) (Rattus norvegicus, UniProt P30551).
T1 construct: The whole pancreas was dissected free of fat tissue and was homogenized; from tissue; host or cells: whole pancreas membranes of male Sprague-Dawley rats
T1 sequence (P30551 1-444): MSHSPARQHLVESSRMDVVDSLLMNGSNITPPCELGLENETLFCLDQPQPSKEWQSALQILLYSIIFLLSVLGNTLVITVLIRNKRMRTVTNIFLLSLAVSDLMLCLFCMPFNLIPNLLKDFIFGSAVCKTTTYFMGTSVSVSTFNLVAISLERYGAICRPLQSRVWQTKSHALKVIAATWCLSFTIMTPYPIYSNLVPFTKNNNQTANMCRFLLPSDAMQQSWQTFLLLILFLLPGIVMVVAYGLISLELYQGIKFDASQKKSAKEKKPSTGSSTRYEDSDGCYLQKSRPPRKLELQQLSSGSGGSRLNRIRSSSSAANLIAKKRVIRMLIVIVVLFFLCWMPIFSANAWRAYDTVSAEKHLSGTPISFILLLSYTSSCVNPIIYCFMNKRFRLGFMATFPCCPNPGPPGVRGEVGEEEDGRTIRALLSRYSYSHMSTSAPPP
Kind of assay: CCK Receptor Binding (Pancreas), inhibition of 125I-CCK-8 binding. Also noted: species or system rat (male Sprague-Dawley). The procedure: 1. CCK Receptor Binding (Pancreas)
Male Sprague-Dawley rats (150-200 g) were sacrificed by decapitation. The whole pancreas was dissected free of fat tissue and was homogenized in 25 volumes of ice-cold 10 mM Hepes buffer with 0.1% soya bean trypsin inhibitor (pH 7.4 at 25° C.) with a Kinematica Polytron. The homogenates were centrifuged at 47,800 g for 10 min. Pellets were resuspended in 10 volumes of binding assay buffer (20 mM Hepes, 1 mM EGTA, 5 mM MgCl2, 150 mM NaCl, bacitracin 0.25 mg/ml, soya bean trypsin inhibitor 0.1 mg/ml, and bovine serum albumin 2 mg/ml, pH 6.5 at 25° C.) using a teflon homogenizer, 15 strokes at 500 rpm. The homogenate was further diluted in binding assay buffer to give a final concentration of 0.5 mg original wet weight/l ml buffer. […] All assays were run in duplicate. The reaction mixtures were incubated at 25° C. for 2 hours and the reaction terminated by rapid filtration (Brandell 24 well cell harvester) over Whatman GF/C filters, washing 3×4 mls with ice-cold 100 mM NaCl. The radioactivity on the filters was counted with a LKB gamma counter.
Drug displacement studies were performed with at least 10 concentrations of compounds of formula 1 and the IC50 values were determined by regression analysis.

For the next assay, the target named is T2, CCK receptor (brain) (Cavia porcellus, UniProt H0VZC5).
T2 construct: the cortex was removed and homogenized in 25 mL ice-cold 0.32M sucrose; from tissue; host or cells: cortex P2 membranes of male Hartley guinea pigs
T2 sequence (H0VZC5 1-426): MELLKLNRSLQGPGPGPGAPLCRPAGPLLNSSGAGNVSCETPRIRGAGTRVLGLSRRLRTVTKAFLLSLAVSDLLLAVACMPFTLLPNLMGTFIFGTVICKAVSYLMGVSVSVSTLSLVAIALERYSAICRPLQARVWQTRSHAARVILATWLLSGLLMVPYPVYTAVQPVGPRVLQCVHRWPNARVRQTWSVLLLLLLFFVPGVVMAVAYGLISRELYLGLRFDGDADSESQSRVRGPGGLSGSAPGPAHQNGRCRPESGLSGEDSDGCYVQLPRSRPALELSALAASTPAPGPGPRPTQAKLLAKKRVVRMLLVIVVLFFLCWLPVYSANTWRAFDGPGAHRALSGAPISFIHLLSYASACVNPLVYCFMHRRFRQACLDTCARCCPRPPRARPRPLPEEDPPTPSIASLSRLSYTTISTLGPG
As to the kind of experiment: CCK Receptor Binding (Brain), inhibition of 125I-CCK-8 binding. Also noted: species or system guinea pig (male Hartley). Particulars: guinea pig cortex, 50 pM 125I-CCK-8, pH 6.5, 25° C., 2 hours.

[1] abbreviates: read-out: IC50 125I-CCK Pancreas, rat pancreas, 50 pM 125I-CCK-8, pH 6.5, 25° C., 2 hours.

Description for CCK receptor (brain): CCK-8 sulphated was radiolabelled and the binding was performed according to the description for the pancreas method with minor modifications.
Male Hartley guinea pigs (300-500g) were sacrificed by decapitation and the cortex was removed and homogenized in 25 mL ice-cold 0.32M sucrose. The homogenates were centrifuged at 1000 g for 10 minutes and the resulting supernatant was recentrifuged at 20,000 g for 20 minutes. […] All assays were run in duplicate. The reaction mixtures were incubated at 25° C. for 2 hours and then the reaction was terminated on Whatman GF/C filters by rapid filtration (Brandell 24 well cell Harvester) with 3×5 ml washes of cold 100 mM NaCl. The radioactivity on the filters was then counted with a LKB gamma counter.
Drug displacement studies were performed with at least 10 concentrations of compounds of formula 1 and the IC50 values were determined by regression analysis. IC50 refers to the concentration of the compound required to inhibit 50% of specific binding of ^125 I-CCK-8.

Consider `Cc1cccc(NC(=O)N[C@@H]2N=C(c3ccccc3)c3ccccc3N(C)C2=O)c1` [(R)-N-(2,3-dihydro-1-methyl-2-oxo-5-phenyl-1H-1,4-benzodiazepin-3-yl)-N^1-(3-methylphenyl) urea], for which, in the assay on CCK-B receptors, the “antagonist of CCK-B receptors (in words)” value is “potent and selective antagonist of CCK-B receptors”. Turning to `CSCC[C@H](NC(=O)[C@H](Cc1ccc(OS(=O)(=O)O)cc1)NC(=O)OCc1ccccc1)C(=O)NCC(=O)N[C@@H](Cc1c[nH]c2ccccc12)C(=O)N[C@@H](CCSC)C(=O)N[C@@H](CC(=O)O)C(N)=O` [Cbz-Tyr(SO3 H)-Met-Gly-Trp-Met-Asp-NH2] (Cbz-[sY]MGWMD-NH2), the “CCK antagonist / agonist activity (in words)” value with CCK is “partial agonist”. Consider `CN1C(=O)[C@H](NC(=O)Nc2cccc([C@H](N)C(=O)O)c2)N=C(c2ccccc2)c2ccccc21` [Example 9, N-{(3R)-1,3-Dihydro-1-methyl-2-oxo-5-phenyl-1H-1,4-benzodiazepin-3-yl}-N'-{[3-((1S)-amino-1-carboxy)methylphenyl]-urea}], for which the IC50 is greater than 3 µM at CCK receptor (pancreas) and 1330 nM at CCK receptor (brain). The matching figures for `CN1C(=O)[C@H](NC(=O)Nc2cccc([C@@H](N)C(=O)O)c2)N=C(c2ccccc2)c2ccccc21` [Example 10, N-{(3R)-1,3-Dihydro-1-methyl-2-oxo-5-phenyl-1H-1,4-benzodiazepin-3-yl}-N'-{[3-((1R)-amino-1-carboxy)methylphenyl]-urea}]: greater than 3 µM and 3590 nM. Turning to `COC(=O)CC(NC(=O)OC(C)(C)C)c1cccc(NC(=O)N[C@@H]2N=C(c3ccccc3)c3ccccc3N(C)C2=O)c1` (stereo partly drawn) [Example 11, N-{(3R)-1,3-Dihydro-1-methyl-2-oxo-5-phenyl-1 H-1,4-benzodiazepin-3-yl}-N'-{[3-((1R,S)-tert-butyloxycarbonylamino-2-methoxycarbonyl)ethylphenyl]-urea}], the figures for the IC50 on CCK receptor (pancreas) and at CCK receptor (brain) were greater than 3 µM and 386 nM, respectively.

Consider `CN1C(=O)[C@H](NC(=O)Nc2cccc(C(N)CC(=O)O)c2)N=C(c2ccccc2)c2ccccc21` (stereo partly drawn) [Example 13, N-{(3R)-1,3-Dihydro-1-methyl-2-oxo-5-phenyl-1H-1,4-benzodiazepin-3-yl}-N'-{[3-((1R,S)-amino-2-carboxy)ethylphenyl]-urea}], for which the IC50 at CCK receptor (pancreas) is greater than 3 µM; on CCK receptor (brain) it was greater than 3000 nM. Regarding `COC(=O)C1(NC(=O)OC(C)(C)C)CCc2cccc(NC(=O)N[C@@H]3N=C(c4ccccc4)c4ccccc4N(C)C3=O)c2C1` (stereo partly drawn) [Example 14, N-{(3R)-1,3-Dihydro-1-methyl-2-oxo-5-phenyl-1H-1,4-benzodiazepin-3-yl}-N'-{[8-(methyl-2(R,S)-tert-butyloxycarbonylamino-1,2,3,4-tetrahydro-2-naphthoate)]-urea}], the values for the IC50 on CCK receptor (pancreas) (setting [1]) and at CCK receptor (brain) were greater than 3 µM and 647 nM, respectively.

`COC(=O)C1(NC(=O)OC(C)(C)C)CCc2ccc(NC(=O)N[C@@H]3N=C(c4ccccc4)c4ccccc4N(C)C3=O)cc2C1` (stereo partly drawn) [Example 15, N-{(3R)-1,3-Dihydro-1-methyl-2-oxo-5-phenyl-1H-1,4-benzodiazepin-3-yl}-N'-{[7-(methyl-2-(R,S)-tert-butyloxycarbonylamino-1,2,3,4-tetrahydro-2-naphthoate)]-urea}]: the half-maximal inhibitory concentration (IC50) is greater than 3 µM at CCK receptor (pancreas) (setting [1]) and 126 nM on CCK receptor (brain).

In the case of `COC(=O)C1(N)CCc2ccc(NC(=O)N[C@@H]3N=C(c4ccccc4)c4ccccc4N(C)C3=O)cc2C1` (stereo partly drawn) [Example 16, N-{(3R)-1,3-Dihydro-1-methyl-2-oxo-5-phenyl-1H-1,4-benzodiazepin-3-yl}-N'-{[7-(methyl-2-(R,S)-amino-1,2,3,4-tetrahydro-2-naphthoate)]-urea}], the figures for the IC50 on CCK receptor (pancreas) and at CCK receptor (brain) were greater than 3 µM and 148 nM, respectively. Regarding `CN1C(=O)[C@H](NC(=O)Nc2ccc3c(c2)CC(N)(C(=O)O)CC3)N=C(c2ccccc2)c2ccccc21` (stereo partly drawn) [Example 17, N-{(3R)-1,3-Dihydro-1-methyl-2-oxo-5-phenyl-1H-1,4-benzodiazepin-3-yl}-N'-{[7-(2-(R,S)amino-1,2,3,4-tetrahydro-2-naphthoic acid)]-urea}], the half-inhibitory concentration (IC50) at CCK receptor (pancreas) is greater than 3 µM; at CCK receptor (brain) it was 28.4 nM. The matching figures for `COC(=O)C1(N)CCc2cc(NC(=O)N[C@@H]3N=C(c4ccccc4)c4ccccc4N(C)C3=O)ccc2C1` (some centres unmarked) [Example 19]: greater than 3 µM and greater than 3000 nM. The matching figures for `CN1C(=O)[C@H](NC(=O)Nc2ccc3c(c2)CCC(N)(C(=O)O)C3)N=C(c2ccccc2)c2ccccc21` (stereo partly drawn) [Example 20, N-{(3R)-1,3-Dihydro-1-methyl-2-oxo-5-phenyl-1H-1,4-benzodiazepin-3-yl}-N'-{[6-(2-(R,S)-amino-1,2,3,4-tetrahydro-2-naphthoic acid)]-urea}]: greater than 3 µM and 3520 nM. Take `COC(=O)C1(NC(=O)OC(C)(C)C)CCc2c(cccc2NC(=O)N[C@@H]2N=C(c3ccccc3)c3ccccc3N(C)C2=O)C1` (stereo partly drawn) [Example 21, N-{(3R)-1,3-Dihydro-1-methyl-2-oxo-5-phenyl-1H-1,4-benzodiazepin-3-yl}-N'-{[5-(methyl-2-(R,S)-tert-butyloxycarbonylamino-1,2,3,4-tetrahydro-2-naphthoate)]-urea}]: the IC50 was greater than 3 µM on CCK receptor (pancreas) (setting [1]) and 1690 nM at CCK receptor (brain).

As to `COC(=O)C1(N)CCc2c(cccc2NC(=O)N[C@@H]2N=C(c3ccccc3)c3ccccc3N(C)C2=O)C1` (stereo partly drawn) [Example 22, N-{(3R)-1,3-Dihydro-1-methyl-2-oxo-5-phenyl-1H-1,4-benzodiazepin-3-yl}-N'-{[5-(methyl-2-(R,S)-amino-1,2,3,4-tetrahydro-2-naphthoate)]-urea}], the half-maximal inhibitory concentration (IC50) on CCK receptor (pancreas) is greater than 3 µM; on CCK receptor (brain), 2160 nM. Regarding `CN1C(=O)[C@H](NC(=O)Nc2cccc3c2CCC(N)(C(=O)O)C3)N=C(c2ccccc2)c2ccccc21` (stereo partly drawn) [Example 23, N-{(3R)-1,3-Dihydro-1-methyl-2-oxo-5-phenyl-1H-1,4-benzodiazepin-3-yl}-N'-{[5-(2-(R,S)-amino-1,2,3,4-tetrahydro-2-naphthoic acid)]-urea}], the IC50 at CCK receptor (pancreas) was greater than 3 µM; at CCK receptor (brain) it was greater than 3000 nM. For `CCCC(=O)Nc1nc2c(ncn2[C@@H]2O[C@@H]3COP(=O)(O)O[C@H]3[C@H]2OC(=O)CCC)c(=O)[nH]1` [dibutyryl cyclic GMP], the “CCK antagonist / agonist activity (in words)” value with CCK was “the most potent”.
